Measured values reported in patent publication US11360102B2, “Biomarkers for the early detection of Parkinson's disease” (BOSTON MEDICAL CENTER CORPORATION, priority 2015, dated 2022).
Like-named read-outs stand apart in the source and are kept apart here.

Key:
[1] = tested on: PLA2g6(L)-dependent Orai1-mediated SOCE; assay: TG-induced store-operated Ca2+ entry (SOCE), Fura-2 imaging in human primary skin fibroblasts; type: cell-based; details: Skin fibroblast, 10 μM of DES, hPSF, read-out: inhibition of TG-induced Ca^2+ influx
Procedure: Intracellular Ca^2+ studies were performed using standard Fura-2 imaging technique. Briefly, the cells were loaded with Fura-2/AM (5 μM) (Invitrogen) and cytosolic Ca^2+ (using F340/F380 ratio) was recorded simultaneously in individual cells. Representative traces in the figures show average (±SD) responses from up to 20 cells recorded simultaneously. Ca^2+ changes are shown by ΔRatio (ΔF340/F380), which is the difference between the basal and peak values of Ca^2+ responses. Summary bar graphs show the average (±SE) from 3 independent experiments for each condition; the total number of cells in each experimental group is identified on the graphs.
SOCE was measured in response to extracellular application of 2-2.5 mM Ca^2+ in the presence of TG. Concentration and time of acute TG treatment was titrated for each cell type to ensure >90% loss of Ca^2+ from TG-sensitive stores at the time of Ca^2+ addition. […] To inhibit PLA2g6 activity, (S)-BEL (S-bromoenol lactone, Cayman, USA) was applied (10-50 μM for 20 min in serum-free medium at 37° C.) to the cells after their loading with Fura-2/AM, and was washed away before the start of experiment.

[2] = tested on: PLA2g6 ex2^KO mice; assay: L-DOPA challenge test, balance beam test; type: in vivo, mouse
Procedure: The balance beam test (ref 72, 73) was used to assess the ability of ageing ex2^KO and WT mice to maintain balance while walking along a narrow (2 cm) beam placed 20 cm above a soft mattress. Each mouse was placed on a beam for 2 minutes, and its movement was recorded by video camera. The total travel distance, the number of missteps (paw faults, or slips) during travel, and the number of falls off the beam were analyzed for each mouse, and data summarized for each group as mean±SE. The numbers of animals used for each group are identified on the graphs. L-DOPA challenge test (ref 3) was performed on three age groups (12, 16 and 20 months old) ex2^KO male mice with motor deficits. Control balance beam test was performed in the morning a day before L-3,4-dihydroxyphenylalanine (L-DOPA) challenge. In the morning of the following day, all mice received a single dose of L-DOPA (5, 10 or 25 mg/kg, Sigma) via peritoneal injection. Twenty minutes before L-DOPA administration, mice were given 6 mg/kg of benserazide (Sigma) to inhibit peripheral DOPA decarboxylase. The balance beam test was done 1 h after L-DOPA injection, as described above. Video-recorded data for each mouse were analyzed later, and summarized for each group as mean±SE. The numbers of animals used for each age group are identified next to the graph.

[3] = tested on: PLA2g6; assay: PLA2g6 activity, modified PLA2 assay kit, fibroblast homogenates; type: biochemical, human; details: S-BEL 25 μM for 10 min; hPSF from control, idPD and fPD^R747W patients
Procedure: A modified PLA2 assay kit (Cayman for MEFs, and AbCam for hPSF) was used as previously described^21,26. Briefly, each sample of live hPSF or MEF cells was homogenized using a cold lysis buffer (10 mM Tris-HCl, pH 7.0, 300 mM sucrose, 0.5% Triton X-100). To identify specific activity of Ca^2+-independent PLA2g6, the assay buffers were modified to contain no Ca^2+. To assess catalytic activity of PLA2g6, the cells were homogenized and treated with 10 mM EGTA for 10 min, which is known to directly displace inhibitory calmodulin, and fully activate PLA2g6. For analysis of PLA2g6 activation by store depletion, live cells were pretreated with TG (5 μM for 10 min) before homogenization, and homogenates were not treated with 10 mM EGTA. The specificity of PLA2g6 activity in both cases was confirmed by its inhibition with S-BEL (25 μM for 10 min), a chiral-specific suicidal substrate^38 that discriminates PLA2g6 from all other phospholipases. […] The reaction was stopped and the generation of free thiols was visualized by addition of DTNB for 5 min: the absorbance was determined at 405 nm using a standard microplate reader. […]

[4] = tested on: MEF cells; assay: LC3^mCherry/eGFP autophagic flow, live cell imaging in MEFs; type: cell-based, mouse; details: WT MEFs; prolonged TG treatment, 10 nM for 24 hours
Procedure: Transfection of MEFs was performed using the Amaxa Nucleofector™ system (Lonza, Allendale, N.J., USA). Briefly, the cells were plated in a 6-well plate at a density of 200,000/well. After 24h the cells from each well were collected, centrifuged, re-suspended in 100 μl of electroporation solution (Mirus Bio, Madison, Wis., USA), mixed with 2 μg of the recombinant plasmid DNA and transfected using the T020 program. After electroporation, the cells were plated in 2 ml of warm DMEM containing 10% FBS and 1% penicillin/streptomycin, and grown for 24-48 hours, as specified. Transfection efficiency (verified by expression of GFP or LC3^mCherry/eGFP) was >70%.
Live cell imaging was done using Nikon Ti inverted fluorescence microscope equipped with a Perfect Focus system and environmental chamber (InVivo Scientific). Live cells transfected with LC3^mCherry/eGFP (alone, or in combination with PLA2g6, or its mutants) were imaged in glass-bottom dishes in culture medium at 37° C. and 5% CO2. Images of individual cells were taken using a 60×/1.4 Plan-Apochromat oil immersion objective (Nikon) and filter sets for GFP (ex: 465-496, em: 515-555) and Texas Red (ex: 540-580, em: 600-660). Images of representative cells were analyzed using ImageJ (Wayne Rasband, NIH) software. […]

CC/C(=C(/CC)c1ccc(O)cc1)c1ccc(O)cc1 [DES, diethylstilbestrol]
inhibition at 10 µM ([1]; control group): 80 ± 1% | inhibition at 10 µM ([1]; idPD group): 82 ± 4%

N[C@@H](Cc1ccc(O)c(O)c1)C(=O)O [L-DOPA, L-3,4-dihydroxyphenylalanine]
reduction in the number of missteps (balance beam performance) ([2]; 5 mg/kg body weight L-DOPA, peritoneal injection, test 1 h after, 12-month old ex2^KO animals): 60% | motor coordination of ex2^KO animals after L-DOPA ([2]; 5, 10 or 25 mg/kg, 12, 16 and 20 months old ex2^KO mice): dramatically improved motor coordination

O=C1O/C(=C/Br)CC[C@H]1c1cccc2ccccc12 [S-BEL, S-bromoenol lactone]
effect on PLA2g6 activity (catalytic and TG-induced) [3]: inhibition

C/C=C(/C)C(=O)O[C@H]1C(C)=C2[C@H]([C@@H]1OC(=O)CCCCCCC)[C@@](C)(OC(C)=O)C[C@H](OC(=O)CCC)[C@@]1(O)[C@H]2OC(=O)[C@@]1(C)O [TG, thapsigargin]
autophagic flow (LC3^mCherry/eGFP) [4]: Autophagic arrest
